From ChEMBL document CHEMBL1201862, “PubChem BioAssay data set” (2004)
The source made the active and inactive calls.

Columns and labels:
[1] = biological target: T1, Apoptotic protease-activating factor 1 (Homo sapiens, UniProt O14727); format: functional
T1 sequence (O14727 whole entry): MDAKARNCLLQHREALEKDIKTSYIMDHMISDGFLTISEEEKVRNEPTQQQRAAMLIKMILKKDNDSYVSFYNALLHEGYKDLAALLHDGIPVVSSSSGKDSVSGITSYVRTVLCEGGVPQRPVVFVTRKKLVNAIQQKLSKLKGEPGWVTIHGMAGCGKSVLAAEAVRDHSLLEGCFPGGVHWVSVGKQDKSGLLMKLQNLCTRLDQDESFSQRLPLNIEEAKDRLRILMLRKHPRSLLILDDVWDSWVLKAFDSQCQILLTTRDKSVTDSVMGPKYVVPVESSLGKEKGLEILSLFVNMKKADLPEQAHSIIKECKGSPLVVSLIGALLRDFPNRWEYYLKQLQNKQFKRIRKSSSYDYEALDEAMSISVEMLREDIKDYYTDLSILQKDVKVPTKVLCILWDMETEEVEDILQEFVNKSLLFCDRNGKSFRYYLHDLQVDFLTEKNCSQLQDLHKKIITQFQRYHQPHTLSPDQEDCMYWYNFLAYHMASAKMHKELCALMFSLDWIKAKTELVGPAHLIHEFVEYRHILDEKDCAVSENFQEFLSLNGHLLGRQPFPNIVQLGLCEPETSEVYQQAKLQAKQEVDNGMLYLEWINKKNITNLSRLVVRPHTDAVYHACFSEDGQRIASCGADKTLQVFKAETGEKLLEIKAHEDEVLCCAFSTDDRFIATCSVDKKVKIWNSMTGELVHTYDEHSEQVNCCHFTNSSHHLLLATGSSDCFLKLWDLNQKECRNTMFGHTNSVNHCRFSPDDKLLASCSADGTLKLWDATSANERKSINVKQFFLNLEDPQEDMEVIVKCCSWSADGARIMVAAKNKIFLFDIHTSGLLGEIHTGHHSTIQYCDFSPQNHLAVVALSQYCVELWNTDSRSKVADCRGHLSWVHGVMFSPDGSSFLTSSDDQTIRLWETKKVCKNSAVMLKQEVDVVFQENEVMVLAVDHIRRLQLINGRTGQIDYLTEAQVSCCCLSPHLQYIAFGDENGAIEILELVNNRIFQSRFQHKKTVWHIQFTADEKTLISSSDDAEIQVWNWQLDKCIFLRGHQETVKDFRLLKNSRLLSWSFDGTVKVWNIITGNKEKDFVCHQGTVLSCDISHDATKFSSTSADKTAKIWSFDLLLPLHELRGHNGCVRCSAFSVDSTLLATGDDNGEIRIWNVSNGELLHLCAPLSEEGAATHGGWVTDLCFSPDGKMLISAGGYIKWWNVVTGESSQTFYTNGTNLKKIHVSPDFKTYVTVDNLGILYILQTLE

[2] = viability loss in HEK293 cells – cell-based, plate reader, cherry-picked samples, cytotoxicity control, dose response (AID 743446); format: functional
Kallikrein-7 = Kallikrein-7 (Homo sapiens, UniProt P49862); assay: Fluorescence Intensity-based biochemical primary high throughput dose response assay to identify activators of kallikrein-7 (K7) zymogen.
Sequence of Kallikrein-7 (P49862 whole entry): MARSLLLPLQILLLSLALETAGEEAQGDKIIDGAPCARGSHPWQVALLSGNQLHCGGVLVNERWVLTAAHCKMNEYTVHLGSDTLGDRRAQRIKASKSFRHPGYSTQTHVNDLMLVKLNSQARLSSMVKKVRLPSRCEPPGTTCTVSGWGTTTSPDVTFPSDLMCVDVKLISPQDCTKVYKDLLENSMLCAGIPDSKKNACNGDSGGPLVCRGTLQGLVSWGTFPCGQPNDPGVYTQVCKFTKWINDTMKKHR

[3] = NIH-3T3 fibroblast cytotoxicity, dose response, cytotoxicity control, cell-based, fluorescence, Alamar Blue, secondary assay (AID 2327); format: functional;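 further: NIH-3T3 mouse fibroblasts cultured with fluconazole at 8 µg/mL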
BJ [4] = assay: BJ-TERT fibroblast viability loss – cell-based, RAS-independent, luminescence, dose response (AID 1933); format: functional; settings: Homo sapiens
BJ [5] = assay: cells; format: functional, cell-based; settings: Homo sapiens
[6] = fluconazole-exposed Candida albicans growth modulators – fluorescence, retest, confirmation (AID 2467); format: functional, cell-based
Large T antigen = Large T antigen (Simian virus 40, UniProt P03070); format: functional, Betapolyomavirus macacae;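 further: Confirmatory-stage PubChem screen for compounds that inhibit SV40 T antigen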
Sequence of Large T antigen (P03070 whole entry): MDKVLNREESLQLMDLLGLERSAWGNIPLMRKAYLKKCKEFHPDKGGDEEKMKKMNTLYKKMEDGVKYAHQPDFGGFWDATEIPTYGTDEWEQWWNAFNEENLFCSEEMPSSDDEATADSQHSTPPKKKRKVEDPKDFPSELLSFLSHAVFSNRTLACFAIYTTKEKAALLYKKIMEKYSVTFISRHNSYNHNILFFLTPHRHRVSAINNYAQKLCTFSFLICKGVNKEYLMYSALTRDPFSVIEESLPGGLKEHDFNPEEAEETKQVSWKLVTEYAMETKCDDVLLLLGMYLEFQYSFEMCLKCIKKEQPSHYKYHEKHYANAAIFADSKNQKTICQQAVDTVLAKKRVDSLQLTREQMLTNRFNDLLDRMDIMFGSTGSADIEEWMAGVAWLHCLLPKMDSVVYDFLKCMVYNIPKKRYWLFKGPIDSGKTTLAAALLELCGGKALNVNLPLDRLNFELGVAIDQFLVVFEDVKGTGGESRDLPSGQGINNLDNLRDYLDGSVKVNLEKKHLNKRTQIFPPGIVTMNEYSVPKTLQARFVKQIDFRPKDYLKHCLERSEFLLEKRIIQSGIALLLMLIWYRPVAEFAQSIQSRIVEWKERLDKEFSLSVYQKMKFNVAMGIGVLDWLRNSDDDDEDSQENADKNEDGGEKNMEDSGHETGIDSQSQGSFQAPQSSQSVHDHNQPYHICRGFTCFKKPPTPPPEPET

[7] = viability of PTEN-deleted HCT116 cells – cell-based, HCT116 PTEN knockout, dose response (AID 1047); format: functional;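 further: HCT116 colon tumor cells with PTEN knocked out; cells exposed to compound for 60 hours before readout; potency for loss of cell viability measured by luminescence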
[8] = NIH3T3 cell viability loss – ATP luminescence, mouse fibroblasts, counter-screen, dose response (AID 2010); format: functional, cell-based;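 further: cells exposed to compound for about 90 hours before reading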
[9] = viability of HCT116 lacking mutant beta-catenin – cell-based, human colon tumor, dose response (AID 1045); format: functional;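 further: HCT116 colon tumor cells with beta catenin knocked out; cells exposed to compound for 60 hours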
BJ [10] = assay: BJ-TERT-LT-ST fibroblast viability loss – cell-based, RAS-independent, luminescence, dose response (AID 1935); format: functional; settings: Homo sapiens;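 further: BJ fibroblasts immortalized with TERT plus LT and ST oncogenes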
[11] = DRD fibroblast viability loss – cell-based, non-viral oncogenic, luminescence, dose response (AID 1934); format: functional; settings: Homo sapiens
[12] = biological target: T2, Heat shock factor protein 1 (Mus musculus, UniProt P38532); assay: enhancement of HSF1-driven luciferase signal – cell-based, NIH3T3, luminescence, dose retest, confirmation (AID 435004); format: functional;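 further: stress induced by proteasome inhibitor MG132 added 30 min after compound; luciferase reporter driven by HSF1 response element in NIH3T3 cells; actives raise luminescence as potentiators of the MG132 stress response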
T2 sequence (P38532 whole entry): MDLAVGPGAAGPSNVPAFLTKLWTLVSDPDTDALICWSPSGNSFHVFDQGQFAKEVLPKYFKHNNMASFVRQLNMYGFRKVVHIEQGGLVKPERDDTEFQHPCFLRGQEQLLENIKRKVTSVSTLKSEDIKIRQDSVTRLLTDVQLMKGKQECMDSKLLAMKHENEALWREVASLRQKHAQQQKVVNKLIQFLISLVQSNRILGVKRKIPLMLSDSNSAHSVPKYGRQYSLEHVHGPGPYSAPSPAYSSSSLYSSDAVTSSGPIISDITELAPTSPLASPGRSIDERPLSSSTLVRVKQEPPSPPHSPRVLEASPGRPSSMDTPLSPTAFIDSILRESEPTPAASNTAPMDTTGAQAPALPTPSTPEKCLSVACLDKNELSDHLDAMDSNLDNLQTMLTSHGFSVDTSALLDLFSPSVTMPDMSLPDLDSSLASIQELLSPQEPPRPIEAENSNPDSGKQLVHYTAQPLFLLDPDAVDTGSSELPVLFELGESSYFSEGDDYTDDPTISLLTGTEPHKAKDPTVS

Hexokinase HKDC1 = Hexokinase HKDC1 (Homo sapiens, UniProt Q2TB90); assay: inhibition of HKDC1 glucose phosphorylation – biochemical, W721R variant, dose response (AID 504729); format: functional
Sequence of Hexokinase HKDC1 (Q2TB90 whole entry): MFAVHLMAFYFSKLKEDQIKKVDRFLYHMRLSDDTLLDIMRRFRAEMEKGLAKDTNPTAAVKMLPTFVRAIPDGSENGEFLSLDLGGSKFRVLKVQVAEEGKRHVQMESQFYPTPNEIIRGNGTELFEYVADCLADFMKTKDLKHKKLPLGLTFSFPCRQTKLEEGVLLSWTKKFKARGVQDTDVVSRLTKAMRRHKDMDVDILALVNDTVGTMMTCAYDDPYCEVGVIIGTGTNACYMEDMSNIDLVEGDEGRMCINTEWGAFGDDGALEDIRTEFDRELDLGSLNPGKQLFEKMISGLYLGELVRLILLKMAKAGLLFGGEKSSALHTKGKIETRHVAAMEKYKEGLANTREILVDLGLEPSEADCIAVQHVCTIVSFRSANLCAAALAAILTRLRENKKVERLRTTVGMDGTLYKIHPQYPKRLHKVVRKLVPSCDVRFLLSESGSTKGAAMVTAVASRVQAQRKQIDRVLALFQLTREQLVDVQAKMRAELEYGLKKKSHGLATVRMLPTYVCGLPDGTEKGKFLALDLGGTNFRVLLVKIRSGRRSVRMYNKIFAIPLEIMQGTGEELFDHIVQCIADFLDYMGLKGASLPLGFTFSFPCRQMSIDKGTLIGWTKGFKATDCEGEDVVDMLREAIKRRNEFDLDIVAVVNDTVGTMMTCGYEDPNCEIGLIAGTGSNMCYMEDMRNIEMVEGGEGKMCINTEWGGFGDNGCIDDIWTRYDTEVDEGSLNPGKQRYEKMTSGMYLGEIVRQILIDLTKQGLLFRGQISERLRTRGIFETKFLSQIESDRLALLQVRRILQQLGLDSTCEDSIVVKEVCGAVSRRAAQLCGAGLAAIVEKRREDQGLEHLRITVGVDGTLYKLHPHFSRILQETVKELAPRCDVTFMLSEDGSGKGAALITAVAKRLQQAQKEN

[13] = biological target: DNA damage-inducible transcript 3 protein (Mus musculus, UniProt P35639); format: functional, Cricetulus griseus
Sequence of DNA damage-inducible transcript 3 protein (P35639 whole entry): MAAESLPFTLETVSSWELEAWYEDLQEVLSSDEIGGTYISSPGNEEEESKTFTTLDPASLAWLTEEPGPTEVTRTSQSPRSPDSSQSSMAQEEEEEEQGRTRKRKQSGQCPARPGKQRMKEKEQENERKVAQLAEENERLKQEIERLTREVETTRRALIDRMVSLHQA

Vero = assay: cells; format: functional; settings: Chlorocebus sabaeus
[14] = Fluorescence-based cell-based high throughput dose response assay for inhibitors of the interaction of nucleotide-binding oligomerization domain containing 2 (NOD2) and the receptor-interacting serine-threonine kinase 2 (RIPK2).; format: functional; settings: Homo sapiens
Fatty acid synthase = Fatty acid synthase (Homo sapiens, UniProt P49327); assay: inhibition of human FAS-TE enzyme activity – biochemical, endpoint fluorescence intensity, uHTS hits, dose response (AID 624327); format: functional;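 further: fluorescence from hydrolysis of an O-methyl fluorescein acyl ester substrate by the enzyme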
Sequence of Fatty acid synthase (P49327 whole entry): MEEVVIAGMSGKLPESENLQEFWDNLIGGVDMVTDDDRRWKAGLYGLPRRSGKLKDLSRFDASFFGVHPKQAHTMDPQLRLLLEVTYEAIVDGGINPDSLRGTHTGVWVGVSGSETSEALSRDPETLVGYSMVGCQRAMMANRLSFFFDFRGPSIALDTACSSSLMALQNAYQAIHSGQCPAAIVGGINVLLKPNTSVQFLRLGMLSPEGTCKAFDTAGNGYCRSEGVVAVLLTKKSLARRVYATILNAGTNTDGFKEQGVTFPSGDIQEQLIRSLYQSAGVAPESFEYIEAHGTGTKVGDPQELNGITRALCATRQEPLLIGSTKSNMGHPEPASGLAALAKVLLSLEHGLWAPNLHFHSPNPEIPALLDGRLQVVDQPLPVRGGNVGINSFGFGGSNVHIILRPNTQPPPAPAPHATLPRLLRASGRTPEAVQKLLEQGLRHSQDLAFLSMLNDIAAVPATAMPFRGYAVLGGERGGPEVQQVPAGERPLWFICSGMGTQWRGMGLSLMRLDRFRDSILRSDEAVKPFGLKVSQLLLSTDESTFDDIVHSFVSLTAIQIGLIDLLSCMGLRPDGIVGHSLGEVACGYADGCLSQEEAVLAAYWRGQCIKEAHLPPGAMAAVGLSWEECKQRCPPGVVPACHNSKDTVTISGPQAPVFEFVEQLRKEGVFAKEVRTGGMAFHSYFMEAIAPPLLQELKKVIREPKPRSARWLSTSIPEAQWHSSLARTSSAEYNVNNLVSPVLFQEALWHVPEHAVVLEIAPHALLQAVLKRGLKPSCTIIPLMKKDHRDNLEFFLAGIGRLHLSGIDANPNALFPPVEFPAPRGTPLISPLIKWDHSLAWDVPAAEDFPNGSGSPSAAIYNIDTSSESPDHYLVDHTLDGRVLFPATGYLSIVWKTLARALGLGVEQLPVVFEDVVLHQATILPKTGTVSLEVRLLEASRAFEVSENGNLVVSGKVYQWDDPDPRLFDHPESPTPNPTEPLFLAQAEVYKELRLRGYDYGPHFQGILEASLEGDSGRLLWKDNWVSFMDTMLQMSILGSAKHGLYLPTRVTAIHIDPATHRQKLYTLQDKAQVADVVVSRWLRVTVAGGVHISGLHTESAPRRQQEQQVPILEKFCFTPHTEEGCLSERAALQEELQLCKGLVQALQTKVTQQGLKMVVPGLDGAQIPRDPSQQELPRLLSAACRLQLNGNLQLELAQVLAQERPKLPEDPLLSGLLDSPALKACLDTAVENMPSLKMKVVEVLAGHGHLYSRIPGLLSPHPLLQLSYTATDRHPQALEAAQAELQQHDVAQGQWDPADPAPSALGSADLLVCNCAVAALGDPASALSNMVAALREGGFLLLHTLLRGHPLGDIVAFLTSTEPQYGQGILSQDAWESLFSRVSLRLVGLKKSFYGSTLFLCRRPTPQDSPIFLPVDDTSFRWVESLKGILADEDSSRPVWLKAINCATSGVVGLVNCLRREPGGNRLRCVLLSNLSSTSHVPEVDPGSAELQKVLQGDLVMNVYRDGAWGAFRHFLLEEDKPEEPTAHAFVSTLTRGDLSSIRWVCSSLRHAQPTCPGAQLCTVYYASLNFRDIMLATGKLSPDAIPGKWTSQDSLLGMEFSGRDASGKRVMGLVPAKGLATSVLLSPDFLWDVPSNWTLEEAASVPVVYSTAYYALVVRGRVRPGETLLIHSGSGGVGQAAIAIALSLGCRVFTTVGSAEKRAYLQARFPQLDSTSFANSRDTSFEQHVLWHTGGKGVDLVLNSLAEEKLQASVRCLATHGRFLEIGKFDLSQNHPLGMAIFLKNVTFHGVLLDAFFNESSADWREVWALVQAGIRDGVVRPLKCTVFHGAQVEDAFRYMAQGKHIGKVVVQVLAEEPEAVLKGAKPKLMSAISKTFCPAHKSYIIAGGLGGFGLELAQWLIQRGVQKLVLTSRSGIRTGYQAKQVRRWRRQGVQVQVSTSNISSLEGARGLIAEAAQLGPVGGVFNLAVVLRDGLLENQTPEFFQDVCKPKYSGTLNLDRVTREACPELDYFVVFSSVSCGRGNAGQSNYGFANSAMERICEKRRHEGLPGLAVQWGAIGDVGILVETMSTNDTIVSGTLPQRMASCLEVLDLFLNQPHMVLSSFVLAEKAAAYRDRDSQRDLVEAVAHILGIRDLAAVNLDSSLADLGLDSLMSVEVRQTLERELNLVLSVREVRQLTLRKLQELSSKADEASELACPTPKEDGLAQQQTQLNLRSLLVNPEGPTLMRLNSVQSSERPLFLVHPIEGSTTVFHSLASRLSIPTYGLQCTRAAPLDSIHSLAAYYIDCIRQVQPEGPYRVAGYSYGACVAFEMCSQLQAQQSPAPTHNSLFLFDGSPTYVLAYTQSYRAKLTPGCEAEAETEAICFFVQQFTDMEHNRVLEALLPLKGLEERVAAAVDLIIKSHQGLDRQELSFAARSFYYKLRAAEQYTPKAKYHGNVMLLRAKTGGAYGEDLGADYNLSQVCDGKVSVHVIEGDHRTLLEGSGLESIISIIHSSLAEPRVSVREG

[15] = viability loss in THP-1 monocytes – THP-1 cells, cytotoxicity control for Vif-APOBEC3G degradation inhibitor project, dose response (AID 1117359); format: functional; settings: THP-1
[16] = HIV-1 Vif–A3G interaction blockers – biochemical, TR-FRET, GST-Vif 1-94, biotin-A3G peptide, dose response retest, primary screen (AID 1117319); format: functional;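 further: TR-FRET signal of purified GST-Vif binding a biotinylated A3G peptide; inhibitors lower the FRET signal by blocking Vif and A3G binding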
HEK293 [17] = assay: cells; settings: Homo sapiens
HEK293 [18] = assay: cells; settings: Homo sapiens; remark: listed apart in the source

Compound: CCC(COC)Oc1cc(NCc2ccccc2)c2ncn(C(C)C)c2c1 (stereo not given)
- IC50 [1]: 16.7 µM (active)
- AC50 [2]: 30.4 µM (active)

Compound: O=c1[nH]c(N2CCOCC2)cc2ccccc12
- IC50 [1]: 8.83 µM (active)
- EC50 (Kallikrein-7): > 69.6 µM (inactive)

Compound: O=[N+]([O-])c1ccc(Sc2nc3ccccc3o2)c([N+](=O)[O-])c1
- EC50 [3]: 5.82 µM (inconclusive)
- EC50 (BJ [4]): 3.27 µM (active)
- EC50 (BJ [5]): 8.14 µM (active)
- EC50 [6]: 1.37 µM (active)
- IC50 (Large T antigen): 84.9 µM (active)
- EC50 [7]: 6.88 µM (active)
- EC50 [8]: 1.81 µM (active)
- EC50 [9]: 5.57 µM (active)
- EC50 (BJ [10]): 5.55 µM (active)
- EC50 [11]: 4.54 µM (inconclusive)
- EC50 [12]: 11.7 µM (active)
- IC50 (Hexokinase HKDC1): 37.4 µM (inactive)
- Absolute IC50 (CHOP) [13]: 10 µM
- CC50 (Vero): 4.12 µM (active)
- IC50 [14]: 1.92 µM (active)
- IC50 (Fatty acid synthase): 15.8 µM (active)
- AC50 [2]: 8.49 µM (active)
- CC50 [15]: 2.46 µM (active)
- IC50 [16]: > 100 µM (active)
- EC50 (HEK293 [17]): > 59.6 µM (inactive)
- EC50 (HEK293 [18]): > 59.6 µM (inactive)
